Experimental data as given in patent publication US10780090B2, “Heteroaryl compounds useful as inhibitors of SUMO activating enzyme” (Millennium Pharmaceuticals, Inc., priority 2014, dated 2020).

Molecular target: recombinant human SAE enzyme (Homo sapiens (Human), UniProt Q9UBT2)
Assay: SAE HTRF enzyme assay
Format: biochemical
Settings: for Percent Inhibition: SAE inhibition at compound concentration 0.111 μM; for IC50: SAE inhibition, class symbols, legend in nM
How it was run: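 Human SAE (0.11 nM) with 0.5 μM ATP, 0.125 μM Sumo-Flag and 0.01 μM Ubc9-GST in HEPES pH 7.5, 5 mM MgCl2, 250 μM GSH; 105 min at 24 °C. Stopped with EDTA; HTRF read after 2 h with Eu-anti-Flag and APC-anti-GST. Percent inhibition or IC50 reported.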

Sequence of recombinant human SAE enzyme (Q9UBT2 whole entry): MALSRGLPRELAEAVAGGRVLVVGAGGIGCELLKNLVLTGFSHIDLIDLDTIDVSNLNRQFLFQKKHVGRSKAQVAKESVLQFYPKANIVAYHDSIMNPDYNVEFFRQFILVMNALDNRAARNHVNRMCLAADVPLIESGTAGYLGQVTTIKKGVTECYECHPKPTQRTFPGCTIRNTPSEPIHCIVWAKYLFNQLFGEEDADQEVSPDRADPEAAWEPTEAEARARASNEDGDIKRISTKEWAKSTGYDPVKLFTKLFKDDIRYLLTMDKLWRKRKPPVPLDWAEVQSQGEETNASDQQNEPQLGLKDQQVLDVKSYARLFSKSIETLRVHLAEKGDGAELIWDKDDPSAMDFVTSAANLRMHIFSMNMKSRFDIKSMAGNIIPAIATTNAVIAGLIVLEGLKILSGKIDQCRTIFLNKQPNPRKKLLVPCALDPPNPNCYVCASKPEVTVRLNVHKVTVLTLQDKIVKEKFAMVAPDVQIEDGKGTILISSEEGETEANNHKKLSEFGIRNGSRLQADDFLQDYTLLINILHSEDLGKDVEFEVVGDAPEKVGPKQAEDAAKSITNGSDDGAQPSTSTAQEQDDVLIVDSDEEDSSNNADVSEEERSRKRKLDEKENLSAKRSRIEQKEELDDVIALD
Sequence of recombinant human SAE enzyme (Q9UBE0 whole entry partner): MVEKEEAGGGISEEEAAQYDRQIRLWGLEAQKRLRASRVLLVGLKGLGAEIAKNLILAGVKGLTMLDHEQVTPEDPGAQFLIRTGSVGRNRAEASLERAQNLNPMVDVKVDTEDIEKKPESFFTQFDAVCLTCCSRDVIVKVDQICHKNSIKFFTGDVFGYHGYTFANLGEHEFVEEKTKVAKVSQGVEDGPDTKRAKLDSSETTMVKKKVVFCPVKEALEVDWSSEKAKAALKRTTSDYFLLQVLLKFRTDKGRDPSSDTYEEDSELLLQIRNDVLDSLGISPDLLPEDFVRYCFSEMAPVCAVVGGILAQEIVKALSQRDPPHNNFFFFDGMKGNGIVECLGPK

SMILES | Percent Inhibition [%] | IC50 [nM]
NS(=O)(=O)OC[C@H]1C[C@@H](Nc2ncncc2C(=O)c2cc([C@@H]3OCc4ccc(Cl)cc43)c(Cl)s2)C[C@@H]1O (single isomer, unassigned) [I-310b, [(1R,2S,4R)-4-{[5-({5-chloro-4-[(1R)-6-chloro-1,3-dihydro-2-benzofuran-1-yl]-2-thienyl}carbonyl)pyrimidin-4-yl]amino}-2-hydroxycyclopentyl]methyl sulfamate or [(1R,2S,4R)-4-{[5-({5-chloro-4-[(1S)-6-chloro-1,3-dihydro-2-benzofuran-1-yl]-2-thienyl}carbonyl)pyrimidin-4-yl]amino}-2-hydroxycyclopentyl]methyl sulfamate] | 98 | < 10
CN1CCc2ccc(Cl)cc2[C@@H]1c1cc(C(=O)c2cncnc2N[C@@H]2C[C@H](COS(N)(=O)=O)[C@@H](O)C2)sc1Cl (single isomer, unassigned) [I-311a, [(1R,2S,4R)-4-{[5-({5-chloro-4-[(1R)-7-chloro-2-methyl-1,2,3,4-tetrahydroisoquinolin-1-yl]-2-thienyl}carbonyl)pyrimidin-4-yl]amino}-2-hydroxycyclopentyl]methyl sulfamate or [(1R,2S,4R)-4-{[5-({5-chloro-4-[(1S)-7-chloro-2-methyl-1,2,3,4-tetrahydroisoquinolin-1-yl]-2-thienyl}carbonyl)pyrimidin-4-yl]amino}-2-hydroxycyclopentyl]methyl sulfamate] | 65 | 10 to 100
CN1CCc2ccc(Cl)cc2[C@@H]1c1cc(C(=O)c2cncnc2N[C@@H]2C[C@H](COS(N)(=O)=O)[C@@H](O)C2)sc1Cl (single isomer, unassigned) [I-311b, [(1R,2S,4R)-4-{[5-({5-chloro-4-[(1R)-7-chloro-2-methyl-1,2,3,4-tetrahydroisoquinolin-1-yl]-2-thienyl}carbonyl)pyrimidin-4-yl]amino}-2-hydroxycyclopentyl]methyl sulfamate or [(1R,2S,4R)-4-{[5-({5-chloro-4-[(1S)-7-chloro-2-methyl-1,2,3,4-tetrahydroisoquinolin-1-yl]-2-thienyl}carbonyl)pyrimidin-4-yl]amino}-2-hydroxycyclopentyl]methyl sulfamate] | 96 | < 10
NS(=O)(=O)OC[C@H]1C[C@@H](Nc2ncncc2C(=O)c2cc([C@@H]3OCCCc4ccc(Cl)cc43)cs2)C[C@@H]1O (single isomer, unassigned) [I-314a, [(1R,2S,4R)-4-{[5-({4-[(1R)-8-chloro-1,3,4,5-tetrahydro-2-benzoxepin-1-yl]-2-thienyl}carbonyl)pyrimidin-4-yl]amino}-2-hydroxycyclopentyl]methyl sulfamate or [(1R,2S,4R)-4-{[5-({4-[(1S)-8-chloro-1,3,4,5-tetrahydro-2-benzoxepin-1-yl]-2-thienyl}carbonyl)pyrimidin-4-yl]amino}-2-hydroxycyclopentyl]methyl sulfamate] | 49 | 100 to 1000
NS(=O)(=O)OC[C@H]1C[C@@H](Nc2ncncc2C(=O)c2cc([C@@H]3OCCCc4ccc(Cl)cc43)cs2)C[C@@H]1O (single isomer, unassigned) [I-314b, [(1R,2S,4R)-4-{[5-({4-[(1R)-8-chloro-1,3,4,5-tetrahydro-2-benzoxepin-1-yl]-2-thienyl}carbonyl)pyrimidin-4-yl]amino}-2-hydroxycyclopentyl]methyl sulfamate or [(1R,2S,4R)-4-{[5-({4-[(1S)-8-chloro-1,3,4,5-tetrahydro-2-benzoxepin-1-yl]-2-thienyl}carbonyl)pyrimidin-4-yl]amino}-2-hydroxycyclopentyl]methyl sulfamate] | 98 | < 10
NS(=O)(=O)OC[C@H]1C[C@@H](Nc2ncncc2C(=O)c2cc(C3SCCc4ccc(Cl)cc43)cs2)C[C@@H]1O (single isomer, unassigned) [I-320a, [(1R,2S,4R)-4-{[5-({4-[(1R)-7-chloro-3,4-dihydro-1H-isothiochromen-1-yl]-2-thienyl}carbonyl)pyrimidin-4-yl]amino}-2-hydroxycyclopentyl]methyl sulfamate or [(1R,2S,4R)-4-{[5-({4-[(1S)-7-chloro-3,4-dihydro-1H-isothiochromen-1-yl]-2-thienyl}carbonyl)pyrimidin-4-yl]amino}-2-hydroxycyclopentyl]methyl sulfamate] | 27 | 100 to 1000
NS(=O)(=O)OC[C@H]1C[C@@H](Nc2ncncc2C(=O)c2cc(C3SCCc4ccc(Cl)cc43)cs2)C[C@@H]1O (single isomer, unassigned) [I-320b, [(1R,2S,4R)-4-{[5-({4-[(1R)-7-chloro-3,4-dihydro-1H-isothiochromen-1-yl]-2-thienyl}carbonyl)pyrimidin-4-yl]amino}-2-hydroxycyclopentyl]methyl sulfamate or [(1R,2S,4R)-4-{[5-({4-[(1S)-7-chloro-3,4-dihydro-1H-isothiochromen-1-yl]-2-thienyl}carbonyl)pyrimidin-4-yl]amino}-2-hydroxycyclopentyl]methyl sulfamate] | 93 | < 10
NS(=O)(=O)OC[C@H]1C[C@@H](Nc2ncncc2C(=O)c2cc([C@@H]3CCCc4ccc(Cl)cc43)cs2)C[C@@H]1O (single isomer, unassigned) [I-335a, [(1R,2S,4R)-4-{[5-({4-[(1R)-7-chloro-1,2,3,4-tetrahydronaphthalen-1-yl]-2-thienyl}carbonyl)pyrimidin-4-yl]amino}-2-hydroxycyclopentyl]methyl sulfamate or [(1R,2S,4R)-4-{[5-({4-[(1S)-7-chloro-1,2,3,4-tetrahydronaphthalen-1-yl]-2-thienyl}carbonyl)pyrimidin-4-yl]amino}-2-hydroxycyclopentyl]methyl sulfamate] | 14 | 100 to 1000
NS(=O)(=O)OC[C@H]1C[C@@H](Nc2ncncc2C(=O)c2cc([C@@H]3CCCc4ccc(Cl)cc43)cs2)C[C@@H]1O (single isomer, unassigned) [I-335b, [(1R,2S,4R)-4-{[5-({4-[(1R)-7-chloro-1,2,3,4-tetrahydronaphthalen-1-yl]-2-thienyl}carbonyl)pyrimidin-4-yl]amino}-2-hydroxycyclopentyl]methyl sulfamate or [(1R,2S,4R)-4-{[5-({4-[(1S)-7-chloro-1,2,3,4-tetrahydronaphthalen-1-yl]-2-thienyl}carbonyl)pyrimidin-4-yl]amino}-2-hydroxycyclopentyl]methyl sulfamate] | 41 | 100 to 1000
COc1ccc2c(n1)[C@H](c1cc(C(=O)c3cncnc3N[C@@H]3C[C@H](COS(N)(=O)=O)[C@@H](O)C3)sc1C)OCC2 (single isomer, unassigned) [I-339a, [(1R,2S,4R)-2-hydroxy-4-{[5-({4-[(8S)-2-methoxy-5,8-dihydro-6H-pyrano[3,4-b]pyridin-8-yl]-5-methyl-2-thienyl}carbonyl)pyrimidin-4-yl]amino}cyclopentyl]methyl sulfamate or [(1R,2S,4R)-2-hydroxy-4-{[5-({4-[(8R)-2-methoxy-5,8-dihydro-6H-pyrano[3,4-b]pyridin-8-yl]-5-methyl-2-thienyl}carbonyl)pyrimidin-4-yl]amino}cyclopentyl]methyl sulfamate] | 99 | < 10
COc1ccc2c(n1)[C@H](c1cc(C(=O)c3cncnc3N[C@@H]3C[C@H](COS(N)(=O)=O)[C@@H](O)C3)sc1C)OCC2 (single isomer, unassigned) [I-339b, [(1R,2S,4R)-2-hydroxy-4-{[5-({4-[(8S)-2-methoxy-5,8-dihydro-6H-pyrano[3,4-b]pyridin-8-yl]-5-methyl-2-thienyl}carbonyl)pyrimidin-4-yl]amino}cyclopentyl]methyl sulfamate or [(1R,2S,4R)-2-hydroxy-4-{[5-({4-[(8R)-2-methoxy-5,8-dihydro-6H-pyrano[3,4-b]pyridin-8-yl]-5-methyl-2-thienyl}carbonyl)pyrimidin-4-yl]amino}cyclopentyl]methyl sulfamate] | 94 | < 10
NS(=O)(=O)OC[C@H]1C[C@@H](Nc2ncncc2C(=O)c2ccc([C@@H]3OCCCc4ccc(Cl)cc43)s2)C[C@@H]1O (single isomer, unassigned) [I-343a, [(1R,2S,4R)-4-{[5-({5-[(1R)-8-chloro-1,3,4,5-tetrahydro-2-benzoxepin-1-yl]-2-thienyl}carbonyl)pyrimidin-4-yl]amino}-2-hydroxycyclopentyl]methyl sulfamate or [(1R,2S,4R)-4-{[5-({5-[(1S)-8-chloro-1,3,4,5-tetrahydro-2-benzoxepin-1-yl]-2-thienyl}carbonyl)pyrimidin-4-yl]amino}-2-hydroxycyclopentyl]methyl sulfamate] | 57 | 10 to 100
NS(=O)(=O)OC[C@H]1C[C@@H](Nc2ncncc2C(=O)c2ccc([C@@H]3OCCCc4ccc(Cl)cc43)s2)C[C@@H]1O (single isomer, unassigned) [I-343b, [(1R,2S,4R)-4-{[5-({5-[(1R)-8-chloro-1,3,4,5-tetrahydro-2-benzoxepin-1-yl]-2-thienyl}carbonyl)pyrimidin-4-yl]amino}-2-hydroxycyclopentyl]methyl sulfamate or [(1R,2S,4R)-4-{[5-({5-[(1S)-8-chloro-1,3,4,5-tetrahydro-2-benzoxepin-1-yl]-2-thienyl}carbonyl)pyrimidin-4-yl]amino}-2-hydroxycyclopentyl]methyl sulfamate] | 84 | 10 to 100
